Row | Structure (SMILES) | melting point [°C]
1 | O=S(=O)(c1ccccc1)c1ccc(-c2c[nH]c(COc3ccccc3)n2)cc1 [Example 7, 2-(phenoxymethyl)-4-[4-(phenylsulphonyl)phenyl]-1H-imidazole] | 192 to 194
2 | Brc1ccc(Oc2ccc(-c3c[nH]c(COc4ccccc4)n3)cc2)cc1.O=C(O)C(F)(F)F | 174 to 176
3 | O=C(O)C(F)(F)F.c1ccc(OCc2nc(-c3ccc(Oc4ccccc4)cc3)c[nH]2)cc1 | 112 to 114
4 | Cl.Clc1ccccc1Oc1ccc(-c2c[nH]c(COc3ccccc3)n2)cc1 | 158 to 160
5 | Fc1ccc(Oc2ccc(-c3c[nH]c(CSc4ccccc4)n3)cc2)cc1 [Example 4, 4-[4-(4-fluorophenoxy)phenyl]-2-[(phenylthio)methyl]-1H-imidazole] | 108 to 110
6 | Cl.Nc1cccc(Oc2ccc(-c3c[nH]c(COc4ccccc4)n3)cc2)c1 | > 300
7 | Cl.Nc1ccccc1Oc1ccc(-c2c[nH]c(COc3ccccc3)n2)cc1 | 88 to 89
8 | FC(F)(F)CCCOc1ccc(-c2c[nH]c(COc3ccccc3)n2)cc1 [Example 20, 2-(phenoxymethyl)-4-[4-(4,4,4-trifluorobutoxy)phenyl]-1H-imidazole] | 194 to 196
9 | c1ccc(OCc2nc(-c3ccc(-c4ccccc4)cc3)c[nH]2)cc1 [Example 3, 4-(1,1′-biphenyl-4-yl)-2-(phenoxymethyl)-1H-imidazole] | 185 to 187
10 | Cl.NCc1ccc(Oc2ccc(-c3c[nH]c(COc4ccccc4)n3)cc2)cc1 | > 300
11 | CN(C)CCOc1ccc(-c2c[nH]c(COc3ccccc3)n2)cc1.Cl | 206 to 208
12 | Nc1ccc(Oc2ccc(-c3c[nH]c(COc4ccccc4)n3)cc2)cc1[N+](=O)[O-].O=C(O)C(F)(F)F | 178 to 180
13 | O=C(O)C(F)(F)F.O=C(c1ccccc1)c1ccc(-c2c[nH]c(COc3ccccc3)n2)cc1 | < 50
14 | Fc1ccc(OCc2nc(-c3ccc(Oc4ccc(F)cc4)cc3)c[nH]2)cc1 [Example 5, 2-[(4-fluorophenoxy)methyl]-4-[4-(4-fluorophenoxy)phenyl]-1H-imidazole] | 193 to 195
15 | c1ccc(SCc2nc(-c3ccc(-c4ccccc4)cc3)c[nH]2)cc1 [Example 2, 4-(1,1′-biphenyl-4-yl)-2-[(phenylthio)methyl]-1H-imidazole] | 150 to 152
16 | c1ccc(OCc2nc(-c3ccc(Sc4ccccc4)cc3)c[nH]2)cc1 [Example 6, 2-(phenoxymethyl)-4-[4-(phenylthio)phenyl]-1H-imidazole] | 144 to 146
17 | CCCCOc1ccc(-c2c[nH]c(COc3ccccc3)n2)cc1 [Example 14, 4-(4-butoxyphenyl)-2-(phenoxymethyl)-1H-imidazole] | 179 to 181
18 | Fc1ccccc1COc1ccc(-c2c[nH]c(COc3ccccc3)n2)cc1 [Example 8, 4-{4-[(2-fluorobenzyl)oxy]phenyl}-2-(phenoxymethyl)-1H-imidazole] | 182 to 183
19 | O=C(Nc1ccc(F)cc1)c1ccc(-c2c[nH]c(COc3ccccc3)n2)cc1.O=C(O)C(F)(F)F | 198 to 200
20 | Cl.c1ccc(OCc2nc(-c3ccc(OCCN4CCCCC4)cc3)c[nH]2)cc1 | 227 to 229
21 | Cl.NCC(=O)Nc1ccc(Oc2ccc(-c3c[nH]c(COc4ccccc4)n3)cc2)cc1 | > 250

Now from value to compound:

Row | melting point [°C] | Structure (SMILES)
22 | 131 to 133 | Fc1ccc(Oc2ccc(-c3c[nH]c(COc4ccccc4)n3)cc2)c(F)c1 [Example 55, 4-[4-(2,4-difluorophenoxy)phenyl]-2-(phenoxymethyl)-1H-imidazole]
23 | 188 to 190 | Fc1ccc(Oc2ccc(-c3c[nH]c(COc4ccccc4)n3)cc2)cc1F [Example 52, 4-[4-(3,4-difluorophenoxy)phenyl]-2-(phenoxymethyl)-1H-imidazole]
24 | 160 to 161 | Fc1cc(F)cc(Oc2ccc(-c3c[nH]c(COc4ccccc4)n3)cc2)c1 [Example 47, 4-[4-(3,5-difluorophenoxy)phenyl]-2-(phenoxymethyl)-1H-imidazole]
25 | 128 to 129 | O=[N+]([O-])c1ccccc1Oc1ccc(-c2c[nH]c(COc3ccccc3)n2)cc1 [Example 40, 4-[4-(2-nitrophenoxy)phenyl]-2-(phenoxymethyl)-1H-imidazole]
26 | 194 to 196 | c1ccc(OCc2nc(-c3ccc(-n4ccnc4)cc3)c[nH]2)cc1 [Example 11, 4-[4-(1H-imidazol-1-yl)phenyl]-2-(phenoxymethyl)-1H-imidazole]
27 | < 40 | Cc1[nH]c(COc2ccccc2)nc1-c1ccc(Oc2ccc(F)cc2)cc1 [Example 21, 4-[4-(4-fluorophenoxy)phenyl]-5-methyl-2-(phenoxymethyl)-1H-imidazole]
28 | 154 to 156 | Fc1ccccc1Oc1ccc(-c2c[nH]c(COc3ccccc3)n2)cc1 [Example 51, 4-[4-(2-fluorophenoxy)phenyl]-2-(phenoxymethyl)-1H-imidazole]
29 | 134 to 136 | c1ccc(COc2ccc(Oc3ccc(-c4c[nH]c(COc5ccccc5)n4)cc3)cc2)cc1 [Example 33, 4-{4-[4-(benzyloxy)phenoxy]phenyl}-2-(phenoxymethyl)-1H-imidazole]
30 | 211 to 213 | Oc1ccc(Oc2ccc(-c3c[nH]c(COc4ccccc4)n3)cc2)cc1 [Example 34, 4-{4-[2-(phenoxymethyl)-1H-imidazol-4-yl]phenoxy}phenol]
31 | 143 to 145 | CS(=O)(=O)c1ccc(Oc2ccc(-c3c[nH]c(COc4ccccc4)n3)cc2)cc1 [Example 27, 4-{4-[4-(methylsulphonyl)phenoxy]phenyl}-2-(phenoxymethyl)-1H-imidazole]
32 | 144 to 146 | c1ccc(OCc2nc(-c3ccc(OCCN4CCOCC4)cc3)c[nH]2)cc1 [Example 16, 4-(2-{4-[2-(phenoxymethyl)-1H-imidazol-4-yl]phenoxy}ethyl) morpholine]
33 | 179 to 181 | N#Cc1ccc(Oc2ccc(-c3c[nH]c(COc4ccccc4)n3)cc2)cc1 [Example 23, 4-{4-[2-(phenoxymethyl)-1H-imidazol-4-yl]phenoxy}benzonitrile]
34 | 187 to 189 | O=[N+]([O-])c1ccc(Oc2ccc(-c3c[nH]c(COc4ccccc4)n3)cc2)cc1 [Example 15, 4-[4-(4-nitrophenoxy)phenyl]-2-(phenoxymethyl)-1H-imidazole]
35 | 147 to 148 | c1ccc(Cc2ccc(-c3c[nH]c(COc4ccccc4)n3)cc2)cc1 [Example 48, 4-(4-benzylphenyl)-2-(phenoxymethyl)-1H-imidazole]
36 | 143 to 145 | Fc1cccc(F)c1Oc1ccc(-c2c[nH]c(COc3ccccc3)n2)cc1 [Example 57, 4-[4-(2,6-difluorophenoxy)phenyl]-2-(phenoxymethyl)-1H-imidazole]
37 | 128 to 130 | Fc1ccc(F)c(Oc2ccc(-c3c[nH]c(COc4ccccc4)n3)cc2)c1 [Example 54, 4-[4-(2,5-difluorophenoxy)phenyl]-2-(phenoxymethyl)-1H-imidazole]
38 | 122 to 124 | CSc1ccc(Oc2ccc(-c3c[nH]c(COc4ccccc4)n3)cc2)cc1 [Example 26, 4-{4-[4-(methylthio)phenoxy]phenyl}-2-(phenoxymethyl)-1H-imidazole]
39 | 127 to 129 | Fc1cccc(Oc2ccc(-c3c[nH]c(COc4ccccc4)n3)cc2)c1F [Example 56, 4-[4-(2,3-difluorophenoxy)phenyl]-2-(phenoxymethyl)-1H-imidazole]
40 | 133 to 135 | Brc1cccc(Oc2ccc(-c3c[nH]c(COc4ccccc4)n3)cc2)c1 [Example 44, 4-[4-(3-bromophenoxy)phenyl]-2-(phenoxymethyl)-1H-imidazole]
41 | 177 to 179 | Fc1cccc(Oc2ccc(-c3c[nH]c(COc4ccccc4)n3)cc2)c1 [Example 35, 4-[4-(3-fluorophenoxy)phenyl]-2-(phenoxymethyl)-1H-imidazole]
42 | 140 to 142 | O=[N+]([O-])c1cccc(Oc2ccc(-c3c[nH]c(COc4ccccc4)n3)cc2)c1 [Example 31, 4-[4-(3-nitrophenoxy)phenyl]-2-(phenoxymethyl)-1H-imidazole]
43 | 160 to 162 | Cc1cccc(Oc2ccc(-c3c[nH]c(COc4ccccc4)n3)cc2)c1 [Example 49, 4-[4-(3-methylphenoxy)phenyl]-2-(phenoxymethyl)-1H-imidazole]
44 | 151 to 153 | CCCCCCc1ccc(-c2c[nH]c(COc3ccccc3)n2)cc1 [Example 13, 4-(4-hexylphenyl)-2-(phenoxymethyl)-1H-imidazole]
45 | 146 to 148 | Clc1cccc(Oc2ccc(-c3c[nH]c(COc4ccccc4)n3)cc2)c1 [Example 46, 4-[4-(3-chlorophenoxy)phenyl]-2-(phenoxymethyl)-1H-imidazole]
46 | 161 to 163 | N#Cc1cccc(Oc2ccc(-c3c[nH]c(COc4ccccc4)n3)cc2)c1 [Example 39, 3-{4-[2-(phenoxymethyl)-1H-imidazol-4-yl]phenoxy}benzonitrile]
47 | 100 to 102 | CCOC(=O)c1ccc(Oc2ccc(-c3c[nH]c(COc4ccccc4)n3)cc2)cc1 [Example 25, ethyl 4-{4-[2-(phenoxymethyl)-1H-imidazol-4-yl]phenoxy}benzoate]
48 | 224 to 225 | O=C(Nc1ccc(-c2c[nH]c(COc3ccccc3)n2)cc1)c1ccc(F)cc1 [Example 22, 4-fluoro-N-{4-[2-(phenoxymethyl)-1H-imidazol-4-yl]phenyl}benzamide]
49 | 132 to 134 | COc1ccc(Oc2ccc(-c3c[nH]c(COc4ccccc4)n3)cc2)cc1 [Example 12, 4-[4-(4-methoxyphenoxy)phenyl]-2-(phenoxymethyl)-1H-imidazole]
50 | 133 to 135 | CCOC(=O)c1ccc(-c2c[nH]c(COc3ccccc3)n2)cc1 [Example 24, ethyl 4-[2-(phenoxymethyl)-1H-imidazol-4-yl]benzoate]
51 | 159 to 161 | COCCOc1ccc(-c2c[nH]c(COc3ccccc3)n2)cc1 [Example 19, 4-[4-(2-methoxyethoxy)phenyl]-2-(phenoxymethyl)-1H-imidazole]

Source: US7534805B2, “Imidazole derivatives, their preparation and their use as medicaments” (Societe de Conseils de Recherches Et d'Applications …, priority 2003, dated 2009)
